What was measured:
[1] = target: Sodium-dependent dopamine transporter (Homo sapiens, UniProt Q01959); assay: Inhibition of wild type human dopamine transporter expressed in HEK293 cells assessed as inhibition of [3H]dopamine reuptake preincubated for 5 mins followed by [3H]dopamine addition and measured after 1 min by liquid scintillation analysis; assay type: cell-based
[2] = target: Sodium-dependent noradrenaline transporter (Homo sapiens, UniProt P23975); assay: Inhibition of wild type human NET expressed in HEK293 cells assessed as inhibition of [3H]-MPP+ reuptake preincubated for 5 mins followed by [3H]MPP+ addition and measured after 3 mins by liquid scintillation counting analysis; assay type: cell-based
Chain of Sodium-dependent noradrenaline transporter (P23975 whole entry): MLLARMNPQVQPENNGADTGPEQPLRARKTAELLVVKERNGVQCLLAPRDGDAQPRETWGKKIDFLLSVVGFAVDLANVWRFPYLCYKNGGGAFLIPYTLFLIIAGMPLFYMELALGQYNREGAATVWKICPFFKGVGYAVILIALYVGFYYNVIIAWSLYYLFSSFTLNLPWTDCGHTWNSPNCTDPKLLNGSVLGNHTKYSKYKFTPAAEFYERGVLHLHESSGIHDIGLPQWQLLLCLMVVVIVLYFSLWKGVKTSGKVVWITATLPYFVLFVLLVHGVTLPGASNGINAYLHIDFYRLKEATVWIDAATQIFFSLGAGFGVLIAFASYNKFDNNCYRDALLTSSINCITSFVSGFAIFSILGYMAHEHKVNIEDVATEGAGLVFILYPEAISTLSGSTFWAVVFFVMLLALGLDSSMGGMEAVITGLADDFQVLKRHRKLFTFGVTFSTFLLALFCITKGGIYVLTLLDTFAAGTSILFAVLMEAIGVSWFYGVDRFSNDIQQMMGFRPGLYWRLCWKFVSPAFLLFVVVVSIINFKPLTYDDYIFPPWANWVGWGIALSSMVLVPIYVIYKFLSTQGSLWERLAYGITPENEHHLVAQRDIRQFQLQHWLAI

[3] = target: Sodium-dependent serotonin transporter (Homo sapiens, UniProt P31645); assay type: cell-based, HEK293
Chain of Sodium-dependent serotonin transporter (P31645 whole entry): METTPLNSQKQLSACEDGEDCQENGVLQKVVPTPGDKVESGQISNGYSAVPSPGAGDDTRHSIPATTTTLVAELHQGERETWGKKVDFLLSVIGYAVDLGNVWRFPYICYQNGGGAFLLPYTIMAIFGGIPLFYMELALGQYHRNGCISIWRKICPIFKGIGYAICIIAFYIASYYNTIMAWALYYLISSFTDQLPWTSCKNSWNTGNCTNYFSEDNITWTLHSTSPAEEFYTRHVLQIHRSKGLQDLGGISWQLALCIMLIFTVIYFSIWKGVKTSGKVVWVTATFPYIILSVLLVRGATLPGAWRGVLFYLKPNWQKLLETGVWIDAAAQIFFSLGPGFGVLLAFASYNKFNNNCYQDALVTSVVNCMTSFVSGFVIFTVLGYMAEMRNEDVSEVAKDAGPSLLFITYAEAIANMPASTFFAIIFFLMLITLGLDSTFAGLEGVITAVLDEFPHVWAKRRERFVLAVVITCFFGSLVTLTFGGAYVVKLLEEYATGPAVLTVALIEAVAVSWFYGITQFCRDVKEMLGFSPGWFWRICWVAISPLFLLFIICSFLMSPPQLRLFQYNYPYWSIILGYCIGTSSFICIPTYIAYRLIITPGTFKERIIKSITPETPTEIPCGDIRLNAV
Description: Inhibition of wild type human SERT expressed in HEK293 cells assessed as inhibition of [3H]-5HT reuptake preincubated for 5 mins followed by [3H]5HT addition and measured after 1 min by liquid scintillation counting analysis

Chain of Sodium-dependent dopamine transporter (Q01959 whole entry): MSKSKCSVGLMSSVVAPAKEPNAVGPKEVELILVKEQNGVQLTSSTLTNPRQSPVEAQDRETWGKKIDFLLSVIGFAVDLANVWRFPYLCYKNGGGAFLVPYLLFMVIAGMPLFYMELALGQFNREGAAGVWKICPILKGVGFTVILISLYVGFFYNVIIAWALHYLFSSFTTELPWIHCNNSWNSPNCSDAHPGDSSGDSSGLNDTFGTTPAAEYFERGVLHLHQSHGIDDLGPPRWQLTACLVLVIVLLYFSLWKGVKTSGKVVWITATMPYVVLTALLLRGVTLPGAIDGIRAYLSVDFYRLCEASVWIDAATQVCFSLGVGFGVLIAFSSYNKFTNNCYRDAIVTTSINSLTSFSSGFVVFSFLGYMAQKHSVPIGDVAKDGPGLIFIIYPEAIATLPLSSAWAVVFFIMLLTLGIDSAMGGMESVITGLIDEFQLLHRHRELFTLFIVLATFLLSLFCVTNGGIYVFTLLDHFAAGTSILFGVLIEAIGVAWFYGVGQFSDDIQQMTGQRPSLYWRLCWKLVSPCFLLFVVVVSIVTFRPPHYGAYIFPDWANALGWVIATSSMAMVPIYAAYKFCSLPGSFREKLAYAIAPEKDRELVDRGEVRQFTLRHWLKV

| Compound | IC50 ([1]; read-out: IC50) | IC50 ([2]; read-out: IC50) | IC50 ([3]; hek293) | IC50 ([1]; hek293) | IC50 ([2]; hek293) | IC50 ([3]; read-out: IC50) |
| --- | --- | --- | --- | --- | --- | --- |
| CCCCc1nc(C[S+]([O-])C(c2ccccc2)c2ccccc2)cs1 (centres undefined) | 13.5 µM | 164 µM | Not Active | – | – | – |
| [O-][S+](Cc1nccs1)C1c2ccccc2-c2ccccc21 (centres undefined) | – | – | Not Active | Not Active | Not Active | – |
| [O-][S@@+](Cc1cncs1)[C@H](c1ccccc1)c1ccc(C(F)(F)F)cc1 | 37.7 µM | – | Not Active | – | Not Active | – |
| [O-][S@@+](Cc1cncs1)[C@@H](c1ccccc1)c1ccc(Br)cc1 | 1.6 µM | 566 µM | Not Active | – | – | – |
| [O-][S+](Cc1csc(Cl)n1)C(c1ccccc1)c1ccccc1 (racemic) | 3.02 µM | – | Not Active | – | Not Active | – |
| [O-][S@+](Cc1cncs1)[C@H](c1ccccc1)c1ccc(C(F)(F)F)cc1 | – | – | Not Active | Not Active | Not Active | – |
| Cc1nc(C[S+]([O-])C(c2ccccc2)c2ccccc2)sc1C (centres undefined) | 33.3 µM | 107 µM | – | – | – | 201 µM |
| [O-][S@@+](Cc1cncs1)C(c1ccc(Cl)cc1)c1ccc(Cl)cc1 | 4.1 µM | 89.8 µM | Not Active | – | – | – |
| [O-][S@+](Cc1cncs1)[C@@H](c1ccccc1)c1ccc(C(F)(F)F)cc1 | – | – | Not Active | Not Active | Not Active | – |
| CCc1nc(C[S+]([O-])C(c2ccccc2)c2ccccc2)cs1 (centres undefined) | 14.6 µM | – | Not Active | – | Not Active | – |
| Cc1nc(CSC(c2ccccc2)c2ccccc2)cs1 | 91.4 µM | 130 µM | Not Active | – | – | – |
| Cc1ccc([C@H](c2ccccc2)[S@@+]([O-])Cc2cncs2)cc1 | 3.3 µM | 164 µM | Not Active | – | – | – |
| [O-][S@+](Cc1cncs1)[C@@H](c1ccccc1)c1ccc(Cl)cc1 | 33 µM | – | Not Active | – | Not Active | – |
| CC(C)c1nc(C[S+]([O-])C(c2ccccc2)c2ccccc2)cs1 (centres undefined) | 24.3 µM | – | Not Active | – | Not Active | – |
| [O-][S@@+](Cc1cncs1)[C@H](c1ccccc1)c1ccc(Cl)cc1 | 3.6 µM | 38.6 µM | Not Active | – | – | – |
| Cc1ccc([C@H](c2ccccc2)[S@+]([O-])Cc2cncs2)cc1 | 134 µM | – | Not Active | – | Not Active | – |
| [O-][S@@+](Cc1cncs1)[C@@H](c1ccccc1)c1ccc(F)cc1 | 2 µM | 129 µM | Not Active | – | – | – |
| Cc1nc(CC[S+]([O-])C(c2ccccc2)c2ccccc2)cs1 (centres undefined) | 61.4 µM | – | Not Active | – | Not Active | – |
| [O-][S+](Cc1cncs1)C(c1ccc(Cl)cc1)c1ccc(Cl)cc1 (racemic) | 4.17 µM | 45.5 µM | – | – | – | 221 µM |
| Cc1nc(C)c(C[S+]([O-])C(c2ccccc2)c2ccccc2)s1 (centres undefined) | 87.1 µM | – | Not Active | – | Not Active | – |
| COc1ccc([C@H](c2ccccc2)[S@+]([O-])Cc2cncs2)cc1 | 65.1 µM | – | Not Active | – | Not Active | – |
| Cc1ccc(C(c2ccc(C)cc2)[S+]([O-])Cc2nccs2)cc1 (centres undefined) | 29.4 µM | – | Not Active | – | Not Active | – |
| [O-][S+](Cc1cncs1)C(c1ccc(F)cc1)c1ccc(F)cc1 (racemic) | 6.21 µM | 121 µM | Not Active | – | – | – |
| [O-][S+](Cc1cnc(C23CC4CC(CC(C4)C2)C3)s1)C(c1ccccc1)c1ccccc1 (centres undefined) | – | – | Not Active | – | – | – |
| Cc1cnc(C[S+]([O-])C(c2ccccc2)c2ccccc2)s1 (centres undefined) | 65.6 µM | – | Not Active | – | Not Active | – |
| [O-][S@@+](Cc1cncs1)C(c1ccc(F)cc1)c1ccc(F)cc1 | 5.3 µM | 85 µM | Not Active | – | – | – |

| Compound | IC50 ([1]; read-out: IC50) | IC50 ([2]; read-out: IC50) | IC50 ([3]; hek293) | IC50 ([1]; hek293) | IC50 ([2]; hek293) | IC50 ([3]; read-out: IC50) |
| --- | --- | --- | --- | --- | --- | --- |
| [O-][S@@+](Cc1cncs1)[C@H](c1ccccc1)c1ccc(F)cc1 | 7.4 µM | 104 µM | Not Active | – | – | – |
| COc1ccc(C(c2ccc(OC)cc2)[S+]([O-])Cc2cncs2)cc1 (centres undefined) | 71.6 µM | – | Not Active | – | Not Active | – |
| [O-][S@+](Cc1cncs1)[C@H](c1ccccc1)c1ccc(F)cc1 | 8.3 µM | 230 µM | – | – | – | 145 µM |
| [O-][S@+](Cc1cncs1)[C@H](c1ccccc1)c1ccc(Cl)cc1 | 7.4 µM | 36.5 µM | – | – | – | 140 µM |
| CC(C)(C)c1ncc(C[S+]([O-])C(c2ccccc2)c2ccccc2)s1 (centres undefined) | 59.7 µM | – | Not Active | – | Not Active | – |
| [O-][S@+](Cc1cncs1)[C@@H](c1ccccc1)c1ccc(F)cc1 | 27.8 µM | – | Not Active | – | Not Active | – |
| Cc1ccc(C(c2ccc(C)cc2)[S+]([O-])Cc2csc(C3CC3)n2)cc1 (centres undefined) | – | – | Not Active | Not Active | Not Active | – |
| [O-][S@+](Cc1cncs1)[C@H](c1ccccc1)c1ccc(Br)cc1 | 4.7 µM | 22.7 µM | – | – | – | 29.7 µM |
| [O-][S+](Cc1cscn1)C(c1ccccc1)c1ccccc1 (racemic) | 6.66 µM | – | Not Active | – | Not Active | – |
| [O-][S+](Cc1csc(-c2cccs2)n1)C(c1ccccc1)c1ccccc1 (racemic) | 6.97 µM | 111 µM | Not Active | – | – | – |
| Cc1ncc(C[S+]([O-])C(c2ccccc2)c2ccccc2)s1 (centres undefined) | 68.1 µM | – | Not Active | – | Not Active | – |
| Cc1ccc([C@@H](c2ccccc2)[S@+]([O-])Cc2cncs2)cc1 | 19.6 µM | 68.2 µM | – | – | – | 201 µM |
| COc1ncc(C[S+]([O-])C(c2ccccc2)c2ccccc2)s1 (centres undefined) | 72.5 µM | 139 µM | Not Active | – | – | – |
| [O-][S+](Cc1csc(C2CC2)n1)C(c1ccccc1)c1ccccc1 (centres undefined) | 4.1 µM | 687 µM | – | – | – | 436 µM |
| [O-][S+](Cc1cnc(Cl)s1)C(c1ccccc1)c1ccccc1 (centres undefined) | 24.3 µM | 108 µM | Not Active | – | – | – |
| Cc1ncsc1C[S+]([O-])C(c1ccccc1)c1ccccc1 (centres undefined) | 44.1 µM | – | Not Active | – | Not Active | – |
| COc1ccc([C@H](c2ccccc2)[S@@+]([O-])Cc2cncs2)cc1 | 3.8 µM | 196 µM | Not Active | – | – | – |
| [O-][S+](Cc1cscn1)C(c1ccc(F)cc1)c1ccc(F)cc1 (centres undefined) | 6.76 µM | – | Not Active | – | Not Active | – |
| Cc1ccc(C(c2ccc(C)cc2)[S+]([O-])Cc2cncs2)cc1 (stereo in doubt; 34b) | 356 µM | – | Not Active | – | – | – |
| COc1ccc([C@@H](c2ccccc2)[S@+]([O-])Cc2cncs2)cc1 | 36.3 µM | 261 µM | – | – | – | 24.7 µM |
| [O-][S@@+](Cc1cncs1)[C@@H](c1ccccc1)c1ccc(Cl)cc1 | 2.3 µM | 72 µM | Not Active | – | – | – |
| Cc1nc(C[S+]([O-])C(c2ccccc2)c2ccccc2)c(C)s1 (centres undefined) | 48.1 µM | – | Not Active | – | Not Active | – |
| [O-][S@@+](Cc1cncs1)[C@H](c1ccccc1)c1ccc(Br)cc1 | 4.2 µM | 67.8 µM | Not Active | – | – | – |
| CCCc1nc(C[S+]([O-])C(c2ccccc2)c2ccccc2)cs1 (centres undefined) | 28.4 µM | – | Not Active | – | Not Active | – |
| Cc1ccc(C(c2ccc(C)cc2)[S+]([O-])Cc2cncs2)cc1 (racemic) | 10.6 µM | 215 µM | – | – | – | – |
